Patent US10072017B2, “Compounds and methods for the treatment of cystic fibrosis” (Flatley Discovery Lab, LLC, priority 2015, dated 2018)

Molecular target: T1, CFTR (Homo sapiens, UniProt P13569, DEL508-508)
T1 construct: Primary CF airway epithelial cells were obtained from the UNC Cystic Fibrosis Tissue Procurement and Cell Culture Core; host or cells: primary CF airway epithelial cells
Test: Equivalent current assay in Primary CF airway epithelial cells (NAUC)
Format: cell-based
Conditions: 24 h, normalized to VX809 (3 μM) positive control; for Nauc @ 3 μM: 3 μM test compound; for Nauc @ 10 μM: 10 μM test compound
Method: Primary CF airway epithelial cells were obtained from the UNC Cystic Fibrosis Tissue Procurement and Cell Culture Core. The cells are grown at 37° C. in a Heracell 150i incubator using growth media (BEGM, Fischer). Cells were then transferred to differentiation media (ALI, UNC) for a minimum of 4 weeks on coated Costar snapwells. Two days before the Ussing assay the mucus on the apical surface of the cells was aspirated after incubating with 200 μL of differentiation Media for at least thirty (30) minutes. One day before the Ussing assay test compounds were added to the basolateral surface of the cells at various test concentrations dissolved in DMSO. Duplicate wells were prepared giving a n=3 or n=4 protocol.
Cells were treated for 24 hours with various combinations and concentrations of the test articles, reference standard (3 μM VX809, positive control). Compounds stock solutions were prepared in DMSO and diluted 1/1000 into ALI media to their final assay concentration. Cells were treated with combination solutions (2 mL of each dilution) and incubated at 37° C. for 24 h.
For the equivalent current assay, cells on four Transwell (24-well) plates were treated. Each Transwell plate was filled with 200 μl of HBS on the apical surface and 2 ml on the basolateral surface. Plates were placed horizontally in a heated mount at 37° C., and equilibrated for several minutes. Resting current was measured for 15 min and then blocked by the apical addition of 5 μM benzamil. After 20 min, 10 μM forskolin and 1 μM VX770 were added to both the apical and basolateral side to stimulate CFTR. An increase in chloride current is seen as an upward deflection of the trace. After another 30 min, CFTR-172 (a CFTR inhibitor, 20 μM) and/or bumetanide (20 uM) was added to block CFTR mediated chloride current.
The raw data, current vs. time for the Ussing chamber (sampling interval: 10 s) and voltage vs. time and resistance vs. time for the equivalent current assay (sampling interval: 5 minutes) were transferred to Excel (Microsoft Office Professional, version 14.0.7106.5003) for analysis. CFTR specific current was measured as the average amplitude of the increase in current elicited upon addition forskolin and ending upon addition of the CFTR channel specific blocker CFTR-172. This average is equivalent to the sum of the average forskolin activated and the average VX770-potentiated currents. The average current measured in vehicle (0.1% DMSO) treated cells, Iv, was subtracted from the current for the test article, ITA, or from the corrector reference standard VX809 (3 uM ISTD. For replicate measurements, the average vehicle subtracted response for the test article, was normalized to the average vehicle subtracted inhibitor response of the reference corrector VX809 (3 μM). INSC=(ITA−IV)(ave)/(ISTD−IV)(ave) (Equation 1)
A second endpoint, for the equivalent current assay, evaluated was NAUC, the normalized area under the curve (AUC) measuring the response after addition of forskolin and VX770 to the time point right before the addition of the CFTR inhibitor. The AUC is effectively the average response multiplied by the duration of the response. The AUC of the test article, AUCTA was then corrected by subtracting the average vehicle response, AUCV,ave over the same time range, and normalized as for the inhibitor-sensitive current to the difference of the corrector reference standard VX809 (3 μM VX809r,ave and the vehicle response: NAUCTA=[AUCTA−AUCV,ave]/[AUCVx809r,ave−AUCV,ave] (Equation 2).
The normalized value for DMSO is 0.0 and for VX-809 alone is 1.0. Combinations of compounds with VX-809 that give normalized values greater than 1.0 show activity in the combination assay. A value of 2 means the test compound doubles the effect to VX-809 alone.
Experiments were run with a minimum of n=4 replicates per concentration. […]

T1 sequence (P13569 with tags, fused parts or gaps DEL508-508): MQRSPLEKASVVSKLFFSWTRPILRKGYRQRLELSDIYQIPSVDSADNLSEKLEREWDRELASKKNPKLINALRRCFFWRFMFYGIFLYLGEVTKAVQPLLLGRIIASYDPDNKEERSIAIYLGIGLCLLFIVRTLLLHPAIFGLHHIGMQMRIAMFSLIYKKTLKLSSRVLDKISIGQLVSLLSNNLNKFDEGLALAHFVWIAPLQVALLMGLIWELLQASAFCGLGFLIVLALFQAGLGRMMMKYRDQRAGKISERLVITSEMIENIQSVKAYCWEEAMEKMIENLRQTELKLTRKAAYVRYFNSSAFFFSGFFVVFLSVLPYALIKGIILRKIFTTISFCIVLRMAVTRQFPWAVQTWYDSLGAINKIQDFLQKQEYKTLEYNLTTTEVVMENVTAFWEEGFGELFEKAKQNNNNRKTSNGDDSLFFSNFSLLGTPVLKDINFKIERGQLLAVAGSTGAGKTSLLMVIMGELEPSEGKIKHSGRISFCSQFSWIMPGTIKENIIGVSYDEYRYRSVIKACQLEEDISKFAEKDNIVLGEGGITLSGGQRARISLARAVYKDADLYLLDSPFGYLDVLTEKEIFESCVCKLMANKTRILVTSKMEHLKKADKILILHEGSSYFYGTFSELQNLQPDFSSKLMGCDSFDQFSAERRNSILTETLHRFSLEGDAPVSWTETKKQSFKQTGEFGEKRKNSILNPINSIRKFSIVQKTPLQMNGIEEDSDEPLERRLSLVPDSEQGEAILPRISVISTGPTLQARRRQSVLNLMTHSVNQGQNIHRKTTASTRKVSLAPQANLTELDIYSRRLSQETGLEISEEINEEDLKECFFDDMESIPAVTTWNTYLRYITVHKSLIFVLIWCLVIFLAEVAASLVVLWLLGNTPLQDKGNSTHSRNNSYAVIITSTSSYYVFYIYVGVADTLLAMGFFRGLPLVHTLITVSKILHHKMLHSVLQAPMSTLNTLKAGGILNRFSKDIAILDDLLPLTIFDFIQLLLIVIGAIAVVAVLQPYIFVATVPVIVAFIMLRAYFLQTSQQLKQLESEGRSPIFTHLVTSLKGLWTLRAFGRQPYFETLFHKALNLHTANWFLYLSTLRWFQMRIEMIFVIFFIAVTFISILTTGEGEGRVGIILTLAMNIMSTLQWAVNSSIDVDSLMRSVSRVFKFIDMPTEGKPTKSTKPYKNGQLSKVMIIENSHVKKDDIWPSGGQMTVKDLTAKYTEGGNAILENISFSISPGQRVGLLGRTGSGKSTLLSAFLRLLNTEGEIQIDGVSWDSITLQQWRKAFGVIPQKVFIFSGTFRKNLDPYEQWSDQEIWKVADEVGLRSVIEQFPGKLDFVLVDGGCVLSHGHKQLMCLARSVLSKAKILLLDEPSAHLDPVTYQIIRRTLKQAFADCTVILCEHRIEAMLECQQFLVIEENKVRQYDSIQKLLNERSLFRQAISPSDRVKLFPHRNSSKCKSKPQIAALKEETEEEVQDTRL

In the case of [2H]C12C(=O)N(c3cc(Cl)c(OC)c(Cl)c3)C(=O)C1([2H])C1(C(=O)Nc3c(Cl)cc(Cl)cc31)N1CC(C)(C)CC12 (stereo not drawn) [Example 149], the “Nauc @ 3 μM” value is reported as “+++ (NAUC “+++” refers to an observed NAUC >170% of positive control)” and the “Nauc @ 10 μM” value is reported as “+++ (NAUC “+++” refers to an observed NAUC >170% of positive control)”.
C[C@]1(F)CC2C3C(=O)N(c4cc(Cl)cc(Cl)c4)C(=O)C3C3(C(=O)Nc4c(Cl)cc(Cl)cc43)N2C1 (single isomer, unassigned) [Example 249] was tested, and the “Nauc @ 3 μM” value was “++ (NAUC “++” refers to an observed NAUC 170-140% of positive control)” and the “Nauc @ 10 μM” value was “+ (NAUC “+” refers to an observed NAUC <140% of positive control)”.
O=C1C2C(c3ccccn3)NC3(C(=O)Nc4c(Cl)cc(Cl)cc43)C2C(=O)N1c1cc(Cl)cc(Cl)c1 (stereo not drawn) [Example 212] was tested, and the “Nauc @ 3 μM” value was “+ (NAUC “+” refers to an observed NAUC <140% of positive control)” and the “Nauc @ 10 μM” value was “++ (NAUC “++” refers to an observed NAUC 170-140% of positive control)”.
With O=C1C2C(C3CCCCC3)NC3(C(=O)Nc4c(Cl)cc(Cl)cc43)C2C(=O)N1c1cc(Cl)cc(Cl)c1 (stereo not drawn) [Example 208] the “Nauc @ 3 μM” value was “++ (NAUC “++” refers to an observed NAUC 170-140% of positive control)” and the “Nauc @ 10 μM” value was “+ (NAUC “+” refers to an observed NAUC <140% of positive control)”.
For COc1cc(Cl)cc(N2C(=O)C3C4C[C@H](Cl)CN4C4(C(=O)Nc5c(Cl)cc(Cl)cc54)C3C2=O)c1 (single isomer, unassigned) [Example 107], the “Nauc @ 3 μM” value was “+++ (NAUC “+++” refers to an observed NAUC >170% of positive control)” and the “Nauc @ 10 μM” value was “+++ (NAUC “+++” refers to an observed NAUC >170% of positive control)”.
For O=C1C2C3CC(C(F)F)CN3C3(C(=O)Nc4c(Cl)cc(Cl)cc43)C2C(=O)N1c1cc(Cl)cc(Cl)c1 (stereo not drawn) [Example 137], the “Nauc @ 3 μM” value was “+++ (NAUC “+++” refers to an observed NAUC >170% of positive control)” and the “Nauc @ 10 μM” value was “+++ (NAUC “+++” refers to an observed NAUC >170% of positive control)”.
O=C1C2C3CCCN3C3(C(=O)Nc4c(Cl)cc(Cl)cc43)C2C(=O)N1c1cc(Cl)nc(Cl)c1 (stereo not drawn) [Example 33] was tested, and the “Nauc @ 3 μM” value was “++ (NAUC “++” refers to an observed NAUC 170-140% of positive control)” and the “Nauc @ 10 μM” value was “+++ (NAUC “+++” refers to an observed NAUC >170% of positive control)”.
With Cc1cc(CC2NC3(C(=O)Nc4c(Cl)cc(Cl)cc43)C3C(=O)N(c4cc(Cl)cc(Cl)c4)C(=O)C23)no1 (stereo not drawn) [Example 237] the “Nauc @ 3 μM” value was “++ (NAUC “++” refers to an observed NAUC 170-140% of positive control)” and the “Nauc @ 10 μM” value was “+ (NAUC “+” refers to an observed NAUC <140% of positive control)”.
With N#Cc1cc(Cl)cc(N2C(=O)C3C4CCCN4C4(C(=O)Nc5c(Cl)cc(Cl)cc54)C3C2=O)c1 (stereo not drawn) [Example 31] the “Nauc @ 3 μM” value was “+ (NAUC “+” refers to an observed NAUC <140% of positive control)” and the “Nauc @ 10 μM” value was “+++ (NAUC “+++” refers to an observed NAUC >170% of positive control)”.
[2H]C12C(=O)N(c3cc(Cl)cc(OC)c3)C(=O)C1([2H])C1(C(=O)Nc3c(Cl)cc(Cl)cc31)N1C[C@@H](Cl)CC12 (stereo partly drawn) [Example 146] was tested, and the “Nauc @ 3 μM” value was “+++ (NAUC “+++” refers to an observed NAUC >170% of positive control)” and the “Nauc @ 10 μM” value was “+++ (NAUC “+++” refers to an observed NAUC >170% of positive control)”.
For O=C1C2C3c4ccccc4CN3C3(C(=O)Nc4c(Cl)cc(Cl)cc43)C2C(=O)N1c1cc(Cl)cc(Cl)c1 (stereo not drawn) [Example 22], the “Nauc @ 3 μM” value was “+++ (NAUC “+++” refers to an observed NAUC >170% of positive control)” and the “Nauc @ 10 μM” value was “+++ (NAUC “+++” refers to an observed NAUC >170% of positive control)”.
For O=C1C2C3CC(C(F)F)CN3C3(C(=O)Nc4c(Cl)cc(Cl)cc43)C2C(=O)N1c1cc(Cl)cc(Cl)c1 (stereo not drawn) [Example 99], the “Nauc @ 3 μM” value was “+++ (NAUC “+++” refers to an observed NAUC >170% of positive control)” and the “Nauc @ 10 μM” value was “+++ (NAUC “+++” refers to an observed NAUC >170% of positive control)”.
For COc1c(Cl)cc(N2C(=O)C3C4CC(F)(F)CN4C4(C(=O)Nc5c(Cl)cc(Cl)cc54)C3C2=O)cc1Cl (single isomer, unassigned) [Example 221], the “Nauc @ 3 μM” value was “+++ (NAUC “+++” refers to an observed NAUC >170% of positive control)” and the “Nauc @ 10 μM” value was “+++ (NAUC “+++” refers to an observed NAUC >170% of positive control)”.
COc1c(Cl)cc(N2C(=O)C3C4C[C@H](F)CN4C4(C(=O)Nc5c(Cl)cc(Cl)cc54)C3C2=O)cc1Cl (single isomer, unassigned) [Example 118] was tested, and the “Nauc @ 3 μM” value was “++ (NAUC “++” refers to an observed NAUC 170-140% of positive control)” and the “Nauc @ 10 μM” value was “++ (NAUC “++” refers to an observed NAUC 170-140% of positive control)”.
With O=C1C2C3C[C@H](F)CN3C3(C(=O)Nc4c(Cl)cc(Cl)cc43)C2C(=O)N1c1cc(O)cc(Cl)c1 (stereo partly drawn) [Example 80] the “Nauc @ 3 μM” value was “++ (NAUC “++” refers to an observed NAUC 170-140% of positive control)” and the “Nauc @ 10 μM” value was “++ (NAUC “++” refers to an observed NAUC 170-140% of positive control)”.
For C[C@@]1(F)CC2C3C(=O)N(c4cc(Cl)cc(Cl)c4)C(=O)C3C3(C(=O)Nc4c(Cl)cc(Cl)cc43)N2C1 (single isomer, unassigned) [Example 161], the “Nauc @ 3 μM” value was “+++ (NAUC “+++” refers to an observed NAUC >170% of positive control)” and the “Nauc @ 10 μM” value was “+++ (NAUC “+++” refers to an observed NAUC >170% of positive control)”.
COc1c(Cl)cc(N2C(=O)C3C4C[C@H](F)CN4C4(C(=O)Nc5c(Cl)cc(Cl)cc54)C3C2=O)cc1Cl (stereo partly drawn) [Example 78] was tested, and the “Nauc @ 3 μM” value was “+++ (NAUC “+++” refers to an observed NAUC >170% of positive control)” and the “Nauc @ 10 μM” value was “+++ (NAUC “+++” refers to an observed NAUC >170% of positive control)”.
With O=C1C2C3CC4(CC4)CN3C3(C(=O)Nc4c(Cl)cc(Cl)cc43)C2C(=O)N1c1cc(Cl)cc(Cl)n1 (single isomer, unassigned) [Example 218] the “Nauc @ 3 μM” value was “+++ (NAUC “+++” refers to an observed NAUC >170% of positive control)” and the “Nauc @ 10 μM” value was “+++ (NAUC “+++” refers to an observed NAUC >170% of positive control)”.
With C[C@@]1(O)CC2C3C(=O)N(c4cc(Cl)cc(Cl)n4)C(=O)C3C3(C(=O)Nc4c(Cl)cc(Cl)cc43)N2C1 (stereo partly drawn) [Example 206] the “Nauc @ 3 μM” value was “++ (NAUC “++” refers to an observed NAUC 170-140% of positive control)” and the “Nauc @ 10 μM” value was “+++ (NAUC “+++” refers to an observed NAUC >170% of positive control)”.
With O=C1[C@H]2[C@H]3CCCN3[C@]3(C(=O)Nc4c(Cl)cc(Cl)cc43)[C@H]2C(=O)N1c1cc(Cl)cc(Cl)c1 (single isomer, unassigned) [Example 1] the “Nauc @ 3 μM” value was “+++ (NAUC “+++” refers to an observed NAUC >170% of positive control)” and the “Nauc @ 10 μM” value was “+++ (NAUC “+++” refers to an observed NAUC >170% of positive control)”.
With O=C1C2C3C[C@H](Cl)CN3C3(C(=O)Nc4c(Cl)cc(Cl)cc43)C2C(=O)N1c1cc(Cl)c(O)c(Cl)c1 (stereo partly drawn) [Example 83] the “Nauc @ 3 μM” value was “++ (NAUC “++” refers to an observed NAUC 170-140% of positive control)” and the “Nauc @ 10 μM” value was “+++ (NAUC “+++” refers to an observed NAUC >170% of positive control)”.
